Results taken from patent publication US20160304556A1, “[…] ACTIVE COMPOUNDS AND THEIR METHODS OF USE” (AGIOS PHARMACEUTICALS, INC, priority 2012, published 2016).
pIC50: −log10 of the molar value.

Columns and labels:
[1] = tested on: HT1080 cells; assay: Cellular assay, inhibition of 2-HG production (LC-MS) in HT1080 cells; format: cell-based; conditions: Homo sapiens, HT-1080, 48 hours, LC-MS of media
Procedure: Cells (HT1080 or U87MG) are grown in T125 flasks in DMEM containing 10% FBS, 1× penicillin/streptomycin and 500 ug/mL G418 (present in U87MG cells only). They are harvested by trypsin and seeded into 96 well white bottom plates at a density of 5000 cell/well in 100 μl/well in DMEM with 10% FBS. No cells are placed in columns 1 and 12. Cells are incubated overnight at 37° C. in 5% CO2. The next day test compounds are made up at 2× the final concentration and 100 μl are added to each cell well. The final concentration of DMSO is 0.2% and the DMSO control wells are plated in row G. The plates are then placed in the incubator for 48 hours. At 48 hours, 100 μl of media is removed from each well and analyzed by LC-MS for 2-HG concentrations. The cell plate is placed back in the incubator for another 24 hours. At 72 hours post compound addition, 10 mL/plate of Promega Cell Titer Glo reagent is thawed and mixed. The cell plate is removed from the incubator and allowed to equilibrate to room temperature. Then 100 μl of Promega Cell Titer Glo reagent is added to each well of media. The cell plate is then placed on an orbital shaker for 10 minutes and then allowed to sit at room temperature for 20 minutes. The plate is then read for luminescence with an integration time of 500 ms.
The IC50 for inhibition of 2-HG production (concentration of test compound to reduce 2HG production by 50% compared to control) in these two cell lines for various compounds of formula I is set forth in Table 2 above.

[2] = target: IDH1 R132H (Homo sapiens, UniProt O75874, R132H); assay: In vitro NADPH depletion assay for IDH1m R132H inhibitors; format: biochemical; conditions: enzyme, diaphorase/resazurin readout, read-out: IDH R132H IC50
Procedure: A test compound is prepared as 10 mM stock in DMSO and diluted to 50× final concentration in DMSO, for a 50 μl reaction mixture. IDH enzyme activity converting alpha-ketoglutarate to 2-hydroxyglutaric acid is measured using a NADPH depletion assay. In the assay the remaining cofactor is measured at the end of the reaction with the addition of a catalytic excess of diaphorase and resazurin, to generate a fluorescent signal in proportion to the amount of NADPH remaining. IDH1-R132 homodimer enzyme is diluted to […] in 40 μl of Assay Buffer(150 mM NaCl, 20 mM Tris-Cl pH 7.5, 10 mM MgCl2, 0.05% BSA, 2 mM b-mercaptoethanol); 1 μl of test compound dilution in DMSO is added and the mixture is incubated for 60 minutes at room temperature. The reaction is started with the addition of 10 μl of Substrate Mix ([…], 5 mM alpha-ketoglutarate, in Assay Buffer) and the mixture is incubated for 90 minutes at room temperature. The reaction is terminated with the addition of 25 μl of Detection Buffer (36 μg/ml diaphorase, […], in 1× Assay Buffer), and is incubated for 1 minute before reading on a SpectraMax platereader at Ex544/Em590.
Representative compounds of formula I set forth in Table 1 were tested in this assay and the results are set forth below in Table 3.

Sequence of IDH1 R132H (O75874 whole entry R132H): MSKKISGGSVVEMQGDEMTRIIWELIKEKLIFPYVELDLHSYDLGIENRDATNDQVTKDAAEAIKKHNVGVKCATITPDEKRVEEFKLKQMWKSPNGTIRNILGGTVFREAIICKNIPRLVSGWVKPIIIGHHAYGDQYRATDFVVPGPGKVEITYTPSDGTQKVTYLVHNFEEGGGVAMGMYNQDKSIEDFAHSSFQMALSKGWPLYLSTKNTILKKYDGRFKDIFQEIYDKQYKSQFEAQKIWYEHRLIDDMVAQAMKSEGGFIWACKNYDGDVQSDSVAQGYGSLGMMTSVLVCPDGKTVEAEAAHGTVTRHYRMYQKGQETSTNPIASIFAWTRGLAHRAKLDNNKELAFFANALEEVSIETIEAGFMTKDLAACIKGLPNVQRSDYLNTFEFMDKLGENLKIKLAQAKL

| pIC50 [1] | pIC50 [2] | Compound |
| --- | --- | --- |
| 5.70 to 6.00 | – | O=C(NC1CC(F)(F)C1)[C@H](c1ccccc1Cl)N(C(=O)C1CCN1c1ncccn1)c1cccc(F)c1 (some centres unmarked) [Compound 103] |
| 6.30 to 7.00 | ≥ 7.00 | COC(=O)N1CCOC[C@H]1C(=O)N(c1cccc(F)c1)[C@H](C(=O)NC1CC(F)(F)C1)c1ccccc1Cl [Compound 53] |
| 5.70 to 6.00 | 6.30 to 7.00 | CC(=O)N1CCC[C@H]1C(=O)N(c1cccc(F)c1)[C@H](C(=O)NC1CCCCC1)c1ccccc1C [Compound 9] |
| – | 6.00 to 6.30 | O=C(NC1CCCCC1)C(c1ccccc1Cl)N(C(=O)c1cc2ccccc2[nH]1)c1cccc(F)c1 (centres unmarked) [Compound 20] |
| – | 6.00 to 6.30 | CC(C)(C)OC(=O)N1CCC[C@H]1C(=O)N(c1cccc(F)c1)[C@H](C(=O)NC1CCC(F)(F)CC1)c1ccccc1Cl [Compound 44] |
| 6.00 to 6.30 | ≥ 7.00 | COC(=O)N1C[C@H](F)C[C@H]1C(=O)N(c1cccc(F)c1)[C@H](C(=O)NC1CC(F)(F)C1)c1ccccc1Cl [Compound 55, (2S,4R)-methyl 2-(((S)-1-(2-chlorophenyl)-2-((3,3-difluorocyclo-butyl)amino)-2-oxoethyl)(3-fluorophenyl)carbamoyl)-4-fluoropyrrolidine-1-carboxylate] |
| – | 6.00 to 6.30 | Cc1ccccc1C(C(=O)NC1CCCCC1)N(C(=O)CNC(=O)OC(C)(C)C)c1cccc(F)c1 (centres unmarked) [Compound 7] |
| 6.30 to 7.00 | ≥ 7.00 | COC(=O)N1CCC[C@H]1C(=O)N(c1cccc(F)c1)[C@H](C(=O)NC1CC(F)(F)C1)c1ccccc1Cl [Compound 42, (S)-methyl 2-(((S)-1-(2-chlorophenyl)-2-((3,3-difluorocyclobutyl)amino)-2-oxoethyl)(3-fluorophenyl)carbamoyl)pyrrolidine-1-carboxylate] |
| – | 6.30 to 7.00 | CC(=O)N1CCC[C@@H]1C(=O)N(c1cccc(F)c1)[C@H](C(=O)NC1CCCCC1)c1ccccc1C [Compound 10] |
| – | 6.30 to 7.00 | N#Cc1ccccc1C(C(=O)NC1CCCCC1)N(C(=O)Cn1cnc(Cl)c1Cl)c1cccc(F)c1 (centres unmarked) [Compound 28] |
| – | 6.00 to 6.30 | CNC(=O)N1CCCC[C@@H]1C(=O)N(c1cccc(F)c1)[C@H](C(=O)NC1CCCCC1)c1ccccc1C [Compound 3] |
| 6.00 to 6.30 | 6.30 to 7.00 | COC(=O)N1CCC[C@H]1C(=O)N(c1cccc(S(N)(=O)=O)c1)[C@H](C(=O)NC1CCC(F)(F)CC1)c1ccccc1Cl [Compound 57] |
| – | 6.30 to 7.00 | CNS(=O)(=O)c1cccc(N(C(=O)[C@@H]2CCCN2C(=O)OC)[C@H](C(=O)NC2CC(F)(F)C2)c2ccccc2Cl)c1 [Compound 58] |
| 6.30 to 7.00 | – | O=C(NC1CCCCC1)C(c1ccccc1Cl)N(C(=O)Cn1cnc(Cl)c1Cl)c1cccc(F)c1 (centres unmarked) [Compound 21] |
| 6.00 to 6.30 | ≥ 7.00 | COC(=O)N1C[C@H](O)C[C@H]1C(=O)N(c1cccc(F)c1)[C@H](C(=O)NC1CC(F)(F)C1)c1ccccc1Cl [Compound 51] |
| 6.30 to 7.00 | ≥ 7.00 | O=C(NC1CCCCC1)C(c1ccccc1Cl)N(C(=O)Cn1cncn1)c1cccc(F)c1 (centres unmarked) [Compound 24] |
| 5.70 to 6.00 | 6.30 to 7.00 | CCS(=O)(=O)NCC(=O)N(c1cccc(F)c1)C(C(=O)NC1CCCCC1)c1ccccc1C (centres unmarked) [Compound 6] |
| – | 6.00 to 6.30 | CNC(=O)N1CCC[C@@H]1C(=O)N(c1cccc(F)c1)[C@H](C(=O)NC1CCCCC1)c1ccccc1C [Compound 13] |
| – | 6.30 to 7.00 | COC(=O)NCCC(=O)N(c1cccc(F)c1)C(C(=O)NC1CCCCC1)c1ccccc1C (centres unmarked) [Compound 12] |
| – | 6.00 to 6.30 | CC(C)(C)OC(=O)N1CCC[C@H]1C(=O)N(c1cccc(F)c1)[C@H](C(=O)NC1CC(F)(F)C1)c1ccccc1Cl [Compound 39] |
| 6.30 to 7.00 | – | Cc1ccccc1C(C(=O)NC1CCC(F)(F)CC1)N(C(=O)CNc1cccnc1F)c1cccc(F)c1 (centres unmarked) [Compound 16] |
| – | 6.00 to 6.30 | Cc1ccccc1[C@@H](C(=O)NC1CCCCC1)N(C(=O)[C@H]1CCCN1)c1cccc(F)c1 [Compound 14] |
| – | 6.00 to 6.30 | Cc1ccccc1[C@@H](C(=O)NC1CCCCC1)N(C(=O)[C@H]1CCCCN1C(=O)N(C)C)c1cccc(F)c1 [Compound 4] |
| – | 6.00 to 6.30 | Cc1ccccc1[C@@H](C(=O)NC1CCCCC1)N(C(=O)[C@@H]1CCCN1S(C)(=O)=O)c1cccc(F)c1 [Compound 1] |
| – | 6.00 to 6.30 | Cc1ccccc1C(C(=O)NC1CCCCC1)N(C(=O)CCNC(=O)OC(C)(C)C)c1cccc(F)c1 (centres unmarked) [Compound 8] |

Continued, molecule first:

| Compound | pIC50 [1] | pIC50 [2] |
| --- | --- | --- |
| Cc1ccccc1C(C(=O)NC1CC2CC2C1)N(C(=O)CNc1cccnc1F)c1cccc(F)c1 (centres unmarked) [Compound 15] | – | 6.30 to 7.00 |
| O=C(NC1CCC(F)(F)CC1)C(c1ccccc1Cl)N(C(=O)Cn1cncn1)c1ccc(F)c(F)c1 (centres unmarked) [Compound 37] | – | 6.30 to 7.00 |
| O=C(NC1CCC(F)(F)CC1)C(c1ccccc1Cl)N(C(=O)Cn1cnc(Cl)c1Cl)c1ccc(F)c(F)c1 (centres unmarked) [Compound 38] | – | 6.30 to 7.00 |
| O=C(NC1CCC(F)(F)CC1)C(c1ccccc1Cl)N(C(=O)Cn1ccnn1)c1cccc(F)c1 (centres unmarked) [Compound 46] | 5.70 to 6.00 | 6.30 to 7.00 |
| O=C(NC1CCC(F)(F)CC1)C(c1ccccc1Cl)N(C(=O)Cn1cncn1)c1cccc(F)c1 (centres unmarked) [Compound 45] | 5.70 to 6.00 | 6.30 to 7.00 |
| Cc1nccn1CC(=O)N(c1cccc(-c2nnco2)c1)C(C(=O)NC1CCCCC1)c1ccccc1Cl (centres unmarked) [Compound 25, N-(3-(1,3,4-oxadiazol-2-yl)phenyl)-N-(1-(2-chlorophenyl)-2-(cyclohexylamino)-2-oxoethyl)-2-(2-methyl-1H-imidazol-1-yl)acetamide] | 5.70 to 6.00 | 6.30 to 7.00 |
| O=C(NC1CC(F)(F)C1)C(c1ccccc1Cl)N(C(=O)CN1CCOC1=O)c1cccc(F)c1 (centres unmarked) [Compound 60, 2-(2-chlorophenyl)-N-(3,3-difluorocyclobutyl)-2-(N-(3-fluoro-phenyl)-2-(2-oxooxazolidin-3-yl)acetamido)acetamide] | – | 6.00 to 6.30 |
| O=C(NC1CC(F)(F)C1)C(c1ccccc1Cl)N(C(=O)Cc1ccncc1)c1cccc(F)c1 (centres unmarked) [Compound 64] | 6.30 to 7.00 | ≥ 7.00 |
| O=C(NC1CCC(F)(F)CC1)C(c1ccccc1Cl)N(C(=O)Cn1cnc(Cl)c1Cl)c1cccc(F)c1 (centres unmarked) [Compound 33] | 6.30 to 7.00 | ≥ 7.00 |
| N#Cc1cccc(N(C(=O)Cn2cnc(Cl)c2Cl)C(C(=O)NC2CCCCC2)c2ccccc2Cl)c1 (centres unmarked) [Compound 27] | 6.00 to 6.30 | 6.30 to 7.00 |
| O=C(NC1CCCCC1)C(c1ccc(F)cc1F)N(C(=O)Cn1cnc(Cl)c1Cl)c1ccc(F)c(F)c1 (centres unmarked) [Compound 30, N-cyclohexyl-2-(2-(4,5-dichloro-1H-imidazol-1-yl)-N-(3,4-difluorophenyl)acetamido)-2-(2,4-difluorophenyl)acetamide] | 6.00 to 6.30 | 6.30 to 7.00 |
| O=C(NC1CCC(F)(F)CC1)C(c1ccccc1Cl)N(C(=O)c1cc2ccccc2[nH]1)c1cccc(F)c1 (centres unmarked) [Compound 34] | – | 6.00 to 6.30 |
| Cc1nccn1CC(=O)N(c1cccc2[nH]ncc12)C(C(=O)NC1CCCCC1)c1ccccc1Cl (centres unmarked) [Compound 26] | 5.70 to 6.00 | 6.30 to 7.00 |
| Cc1ccccc1C(C(=O)NC1CC(F)(F)C1)N(C(=O)CNc1ncccc1F)c1cccc(F)c1 (centres unmarked) [Compound 17] | 6.30 to 7.00 | 6.30 to 7.00 |
| O=C(NC1CC(F)(F)C1)C(c1ccccc1Cl)N(C(=O)CNc1cccnc1F)c1cccc(F)c1 (centres unmarked) [Compound 47] | 6.30 to 7.00 | ≥ 7.00 |
| O=C(NC1CC(F)(F)C1)[C@@H](c1ccccc1Cl)N(C(=O)[C@@H]1Cc2ccccc2N1)c1cc(F)cc(F)c1 (single isomer, unassigned) [Compound 117] | – | 6.30 to 7.00 |
| Cc1nccn1CC(=O)N(c1cccc(F)c1)C(C(=O)NC1CC(F)(F)C1)c1ccccc1Cl (centres unmarked) [Compound 59] | – | 6.30 to 7.00 |
| Cc1ccccc1C(C(=O)NC1CC(F)(F)C1)N(C(=O)CNc1cccnc1F)c1cccc(F)c1 (centres unmarked) [Compound 19] | 6.30 to 7.00 | – |
| O=C(NC1CC(F)(F)C1)C(c1ccccc1Cl)N(C(=O)c1cccc2nccn12)c1cccc(F)c1 (centres unmarked) [Compound 40] | – | 6.00 to 6.30 |
